First: CC(C)(C)OC(=O)Nc1ccc(C#Cc2ccc(OC(F)(F)F)cc2)cc1NC(=O)CC(=O)c1cccc(C#N)c1
Second: Cc1cc(N(C)Cc2ccc(-c3ccc(OC(F)(F)F)cc3)nc2)ccc1OCC(=O)O
The melting point of the first is higher: 152 to 154 °C for the first, 137 to 138 °C for the second.

First: C[Si](C)(C)c1c(CCC=O)cnc2c1CCO2
Second: COc1cc(C)c2c(c1OC)CCC1C(=O)NC(=O)C21 (stereo not drawn)
The melting point of the first is lower: 59 to 60 °C for the first, 179 to 181 °C for the second.

First: CCN(CC)c1nsc(NC(=O)NC)c1C(N)=O
Second: CCOC(=O)CC(=O)CCCn1cncn1
The melting point of the first is higher: 195 to 197 °C for the first, 114 to 116 °C for the second.

Compared with `CC(C(=O)O)c1cccc(NC(=O)NC2N=C(c3ccccc3F)c3ccccc3N(CC(=O)N3CC4CCC(CC4)C3)C2=O)c1` (racemic), `CS(=O)(=O)Nc1nc(CN2CCN(C(c3ccccc3)c3ccccc3)CC2)cs1` is lower in melting point: 187 to 204 °C for the first, 177 to 179 °C for the second.

First: CC(=O)NC[C@H]1CN(c2ccc(N3CCC(=C(C)C#N)CC3)c(F)c2)C(=O)O1
Second: CC(=O)NC[C@H]1CN(c2ccc(C3CCOCC3)c(F)c2)C(=O)O1
The melting point of the first is lower: 181 to 182 °C for the first, 191 to 192 °C for the second.

Compared with `O=C(O)c1cc(-c2cccc(C(F)(F)F)c2)ns1`, `O=C(O)c1ccc2c(c1)Cc1ccccc1CO2` is higher in melting point: 162 to 164 °C for the first, 240 to 244 °C for the second.

First: COC(=O)COc1cc2c(c3c1c(C(=O)C(N)=O)c(C)n3Cc1ccc(F)cc1)CCC2
Second: CCOc1nc(C(=O)O)c2c(n1)nc(OCC)n2Cc1ccc(-c2ccccc2-c2nnn[nH]2)cc1
The melting point of the first is lower: 134 to 136 °C for the first, 140 to 141 °C for the second.

First: CCOCCOC(=O)C1=C(C)NC(C#N)=C(C(=O)OCC)C1c1cccc([N+](=O)[O-])c1 (stereo not drawn)
Second: CC1=CC(C)(C)c2ccc(Oc3ccc([N+](=O)[O-])cc3)cc2O1
The melting point of the first is higher: 89 to 91 °C for the first, 80 °C for the second.

First: O=C(O)c1cn(C2CC2)c2c(F)c(-n3cnc(-c4ccccc4)c3)c(F)cc2c1=O
Second: CN(C)S(=O)(=O)c1cc(-c2csc(=Nc3ccccc3)n2C2CCCCC2)ccc1Cl
The melting point of the first is higher: 286 to 288 °C for the first, 148 °C for the second.

First: CNC(=O)n1nc(-c2ccc(Cl)cc2)nc1N
Second: CCCN1C(=O)C2CC2(c2ccc(N)cc2)C1=O (stereo not drawn)
The melting point of the first is higher: 193 to 196 °C for the first, 97 °C for the second.

First: COc1ccc(C(=O)C=Cc2cc(Br)ccc2O)cc1
Second: O=C(Oc1cccc(F)c1)c1ccc(F)cc1
The melting point of the first is higher: 177 to 179 °C for the first, 43.5 to 45.2 °C for the second.

First: Cc1nc2c(N)nc3ccccc3c2o1
Second: O=C1c2ccccc2OC2=CCON12
The melting point of the first is higher: 195 to 197 °C for the first, 144 to 148 °C for the second.

Compared with `COc1ccc(C(=O)N2CCc3cc(OCc4ccccc4)c(OC)cc3C2)cc1`, `COC1(OCc2ccccc2)C=C2C(=CC1)CCN(CCO)C2C1(c2ccccc2Cl)CC1` (stereo not drawn) is lower in melting point: 126 to 127 °C for the first, 65 to 70 °C for the second.

First: C=C(C)C(=O)NCCCCCC(=O)Nc1cc(Cl)c(C)c(Cl)c1O
Second: Cc1c(Cl)cc(C2=NNC(=O)CC2O)cc1Cl (stereo not drawn)
The melting point of the first is lower: 111 to 115 °C for the first, 253 to 256 °C for the second.

Compared with `CC1(C)CC2(CC(C)(C)c3ccc(Oc4ccc([N+](=O)[O-])cc4)cc32)c2cc(Oc3ccc([N+](=O)[O-])cc3)ccc21`, `Cc1c(-c2ccc(O)cc2)n(Cc2ccc(OCCN3CCC(O)CC3)cc2)c2ccc(O)cc12` is lower in melting point: 200 to 202 °C for the first, 80 to 90 °C for the second.

First: COC[C@@H]1Cc2ccccc2N1S(=O)(=O)c1ccc2c(c1)C(=O)C1=NCC(C)(C)CN12
Second: O=C1CCOC(N2CCN=C(c3ccccc3Cl)c3cc(Cl)ccc32)=N1
The melting point of the first is higher: 173 to 175 °C for the first, 124 to 135 °C for the second.

First: O=C(CCCCCN1CCN(c2cccc3c2OCCCO3)CC1)N1Cc2ccccc2C1
Second: NC(Cc1c[nH]c2cc(Cl)cc(Cl)c12)C(=O)OCCC(=O)OCc1ccccc1 (stereo not drawn)
The melting point of the first is lower: 131 °C for the first, 151 to 153 °C for the second.

First: O=C(O)C1Cc2c(c(Cl)cc3c(-c4c(F)cccc4F)noc23)O1 (stereo not drawn)
Second: Fc1ccccc1CO[C@H]1CO[C@@H](c2ccccc2)OC1
The melting point of the first is higher: 240 to 241 °C for the first, 65 to 67 °C for the second.

Compared with `O=C1C=C(Br)C(CBr)(NCc2ccccc2)O1` (stereo not drawn), `COc1ccc(-c2cccs2)c2c1c(CCN(C)C)cn2C` is lower in melting point: 137 to 139 °C for the first, 131 to 133 °C for the second.
